From patent US20220185802A1, “BENZOXAZINE MONOMERS AND POLYMERIC COATINGS” (LUXEMBOURG INSTITUTE OF SCIENCE AND TECHNOLOGY (LIST), priority 2019, published 2022)

How the values were obtained:
NF-κB activation = assay: Inflammation inhibitory activity, NF-κB-inducible SEAP reporter in THP-1 cells with TNFα as inducer; type: cell-based, human; conditions: samples coated with polymer formed from the monomer in combination with P-e, film about 120 μm
Text: (§1) In human, inflammation can arise through the activation of nuclear factor-kappaB (NF-κB), a pivotal transcription factor in chronic inflammatory diseases, inducing the expression of numerous inflammation related-genes such as those for tumor necrosis factor α (TNFα) and cytokines such as IL-1β, IL-10, and IL-6 or IL-8 (Medzhitov R., Nature, 2008, 454, 428-435). In the present invention, an inflammation-relevant human cell line, i.e. the monocytes THP-1 cells, are used to evaluate the potential of the coatings to reduce the inflammation. Their cytotoxicity towards are first evaluated using the resazurin reduction test (O'Brien J. et al., Eur. J. Biochem., 2000, 267, 5421-5426.) General anti-inflammatory properties are then determined using THP-1 cells transfected with a reporter plasmid expressing the secreted alkaline phosphatase (SEAP) gene under the control of an NF-κB-inducible promoter. TNFα are used as an inflammation inducer and the data are expressed as percentage inhibition of NF-κB activation. In addition, the effects of the most promising monomers is further evaluated on inflammation-related genes by real time qPCR using THP-1 cells differentiated into macrophages (Andre C. M. et al., J. Agric. Food. Chem, 2013, 61, 2773-2779) and IL-1β, IL-10, IL-6, and COX-2 as markers (Kaulmann A. et al., Mol. Nutr. Food Res., 2016, 60, 992-1005).

THP-1 cells = assay: Pro-inflammatory activity of coated samples (FIG. 20); type: cell-based, human; conditions: samples coated with film derived from the compound (monomers in combination with P-e; P-e alone)
Text: as §1

CC=Cc1cc2c(c(OC)c1)OCN(Cc1ccco1)C2 [Monomer 12]
inhibition of the inflammation (NF-κB activation; TNFα as inducer): ~20% | anti-inflammatory effect (NF-κB activation; in comparison with P-e or 13): strong anti-inflammatory effect | pro-inflammatory properties (THP-1 cells): only the sample coated with the film derived from compound 13 shows a trend

c1ccc2c(c1)CN(CCN1COc3ccccc3C1)CO2 [P-e, reference compound]
pro-inflammatory properties (THP-1 cells): only the sample coated with the film derived from compound 13 shows a trend
